In patent US20110268757A1, “USE OF PHENOL-SOLUBLE MODULINS FOR VACCINE DEVELOPMENT” (INSTITUT PASTEUR, priority 2008, published 2011):

Legend:
[1] = test system: bone marrow derived dendritic cells; assay: Binding of CFSE labeled peptides to bone marrow derived dendritic cells (flow cytometry); assay type: cell-based, mouse; settings: 20 μM peptide, fixed cells, 30 minutes at 4° C.
Protocol: Dendritic cells were grown from bone marrow cells. After lysing the erythrocytes with ACK lysis buffer, the cells were washed and lymphocytes and granulocytes were removed by means of incubation with a mixture of antibodies against CD4 (GK1; ATCC, Manassas, Va.), CD8 (53.6.72; ATCC), Ly-6G/Gr1 (BD-Pharmingen; San Diego Calif.) and CD45R/B220 (BD-Pharmingen), followed by rabbit supplement. The remaining cells grew in 12 culture plates in complete medium with 10^6 cells/ml supplemented with 20 ng/ml of mGM-CSF and 20 ng/ml of mIL-4 (both from Peprotech; London, GB). Every 2 days the medium was substituted with fresh medium containing cytokines. On day 7, non-adherent dendritic cells were collected, and cultured in the presence or absence of 50 μM of modulin peptides or of 1 μg/ml of LPS (Sigma) and incubated for 48 hours at 37° C. and 5% CO2. After this period, the cells were isolated and incubated with anti IAb, CD54 and CD86 antibodies (Pharmingen). In parallel experiments, the dendritic cells were incubated with the indicated stimuli for 16 hours, after which the expression of the messenger RNA for the p40 molecules of IL-12 and of TNF-α was analyzed.

[2] = test system: splenocytes from C57BL/6 TLR2KO mice; assay: Binding of CFSE labeled peptides to fixed splenocytes from TLR2 KO mice (flow cytometry); assay type: cell-based, mouse; settings: 20 μM peptide, 30 minutes at 4° C.
Protocol: Mouse splenocytes were purified from C57BL/6 TLR2KO mice after homogenizing the spleen. […] 5×10^5 fixed splenocytes were incubated in the presence of 20 μM CFSE γMod-SIINFEKL, CFSE αMod-SIINFEKL or CFSE-OVA (235-264) control peptide to show the binding specificity.

[3] = test system: CD4, CD8, CD11c, CD19, F480 or GR1(CD117) positive splenocytes; settings: total splenocytes, double staining, 20 μM
Protocol: (§2) Binding assays were carried out using either splenocytes (FIG. 1, panels A B, D, E and G) or bone marrow derived dendritic cells (FIG. 1, panels C and F). The cells were fixed by means of an incubation with a 0.4% glutaraldehyde solution for 15 minutes at 4° C. 5×10^5 fixed cells were incubated in the presence of 20 μM CFSE αMod-[sequence] (FIG. 1, panels A, B and C), or CFSE γMod-[sequence] (FIG. 1, panels D, E, F and G). In some assays, and to study the specificity of CFSE labeled peptide binding, these incubations were carried out in the presence or absence of the unlabeled peptides αMod-[sequence], γMod-[sequence] or [sequence] (100 μM) (panels B and E). Also, we carried out binding assays using the CFSE labeled peptide CFSE-OVA (235-264) as a negative control (FIG. 1, panels A, C, D and F). After 30 minutes of incubation at 4° C., two washings with PBS were carried out and the performed labeling was analyzed by flow cytometry. In some experiments (FIG. 1G), double staining was carried out using anti-CD4, CD8, CD11c, CD19, F480 or GR1(CD117) antibodies labeled with phycoerythrin (Pharmingen) together with the CFSE-γMod-[sequence] peptide. In these cases, the labeling with the specific antibodies was carried out before fixing the cells with glutaraldehyde.

[4] = test system: splenocytes pulsed with the SIINFEKL peptide; assay: In vivo killing assay against SIINFEKL-pulsed splenocytes after immunization; set-up: species or system C57BL/6 mice; settings: for specific cytotoxic activity against SIINFEKL (in vivo killing): 5 nmoles peptide plus 50 μg poly I:C, seven days after immunization; for effect of combination with TLR3 ligand on activation of the cytotoxic response (in vivo killing): 5 nmoles peptide with 50 μg TLR3 ligand (poly I:C); for effect of combination with TLR3 ligand on activation of the cytotoxic response (in vivo killing) / effect of combination with TLR9 ligand on activation of the cytotoxic response (in vivo killing) / cytotoxic T responses against SIINFEKL target cells (in vivo killing): seven days; for effect of combination with TLR9 ligand on activation of the cytotoxic response (in vivo killing): 5 nmoles peptide with 50 μg TLR9 ligand (CpG); for cytotoxic T responses against SIINFEKL target cells (in vivo killing): Example 4, C57BL/6 wild type mice, 5 nmoles peptide with 50 μg poly I:C
Protocol: C57BL6 mice were intravenously immunized intravenously with 5 nmoles of the indicated peptides in combination with 50 μg of the TLR3 ligand poly I:C. In some cases, the peptides were immunized in the presence of TLR2 (peptidoglycan), TLR4 (LPS or the EDA protein) or TLR9 (CpG) ligand. […] On the following day, the mice were sacrificed and the splenocytes were analyzed by flow cytometry to quantify the number of cells with high CFSE labeling with respect to the cells with low CFSE labeling. Thus, the percentage of cell lysis of the cells incubated with the cytotoxic SIINFEKL peptide can be calculated in an experiment called in vivo killing.
C57BL6 wild type mice and knockout mice were immunized for TLR2 with the aim of studying the dependence on TLR2 in the immunostimulating capacity of modulin-derived peptides. Thus, different mice were injected with 5 nmoles of the indicated peptides or with PBS in combination with 50 μg of the TLR3 ligand poly I:C. […] On the following day, the mice were sacrificed and the splenocytes were analyzed by flow cytometry to quantify the number of cells with high CFSE labeling with respect to the cells with low CFSE labeling in the same manner as in Example 3.

mouse splenocytes = assay: Binding of CFSE labeled peptides to glutaraldehyde-fixed splenocytes (flow cytometry); assay type: cell-based; settings: unlabeled competitor 100 μM
Protocol: as §2

[5] = test system: T cells from OT-1 transgenic mice; assay: Antigen presentation assay: proliferation of OT-1 T cells (tritiated thymidine); assay type: cell-based, mouse; settings: dendritic cells incubated with 10 μM peptide
Protocol: Dendritic cells derived from bone marrow were cultured in the presence or absence of 10 μM of the indicated peptides (FIG. 3). Forty hours later, the cells were washed and distributed in 96-well plates at different concentrations and incubated in the presence of 10^5 T cells/well obtained from OT-1 transgenic mice (which express a specific T receptor for the SIINFEKL peptide of ovalbumin. Seventy-two hours later, tritiated thymidine was added to the cultures and six hours later the cells were harvested and the incorporated thymidine was analyzed in a scintillation counter (Topcount Packard).

EG7OVA tumor cells [6] = assay: Protection against the challenge with EG7OVA tumor cells after immunization; assay type: in vivo, C57BL/6 mice; settings: 5 nmoles peptide with poly I:C
Protocol: Protection against the challenge with EG7 tumor cells expressing the OVA protein C57BL6 mice were subcutaneously immunized with 5 nmol of the indicated peptides in combination with poly I:C. […] In some experiments, mice were first challenged s.c with 5×10^5 cells and when tumors reached 5 mm in diameter they were treated with the indicated peptide. The tumor growth was controlled with a gage. Mice were sacrificed when the tumor reached a volume greater than 4 cm^3. Kaplan-Meier plot of mice survival for each immunogen is depicted.

EG7OVA tumor cells [7] = assay: Treatment of mice bearing established EG7OVA tumors; assay type: in vivo, C57BL/6 mice; settings: EG7OVA tumors of 5 mm diameter at treatment, peptide plus poly I:C, p<0.05
Protocol: Protection against the challenge with EG7 tumor cells expressing the OVA protein C57BL6 mice were subcutaneously immunized with 5 nmol of the indicated peptides in combination with poly I:C. Seven days after the immunization, the mice were subcutaneously injected with 5×10^5 or with 5×10^7 EG7OVA cells. In some experiments, mice were first challenged s.c with 5×10^5 cells and when tumors reached 5 mm in diameter they were treated with the indicated peptide. The tumor growth was controlled with a gage. Mice were sacrificed when the tumor reached a volume greater than 4 cm^3. Kaplan-Meier plot of mice survival for each immunogen is depicted.

[8] = test system: IFNγ-producing cells in response to the SIINFEKL peptide; assay: ELISPOT of IFNγ-producing cells specific for SIINFEKL in TLR2 KO mice; assay type: in vivo; settings: mice lacking TLR2, 5 nmoles peptide with 50 μg poly I:C, seven days; level similar to wild type
Protocol: (§1) For the analysis of IFNγ-producing cells in the presence of SIINFEKL and induced in vivo by the immunizations, ELISPOT experiments were carried out using a BD-pharmingen kit (San Diego, Calif.) and according to the instructions of the manufacturer, in the same manner as in Example 3.

[9] = test system: IFNγ-producing cells in response to the SIINFEKL peptide; assay: ELISPOT of IFNγ-producing cells specific for SIINFEKL after immunization; assay type: in vivo, C57BL/6 mice; settings: for IFNγ-producing cells in response to SIINFEKL (ELISPOT): 5 nmoles peptide plus 50 μg poly I:C, seven days after immunization; for IFN-γ-producing cells specific for SIINFEKL (ELISPOT): Example 4, C57BL/6 wild type mice, 5 nmoles peptide with 50 μg poly I:C, seven days
Protocol: C57BL6 mice were intravenously immunized intravenously with 5 nmoles of the indicated peptides in combination with 50 μg of the TLR3 ligand poly I:C. In some cases, the peptides were immunized in the presence of TLR2 (peptidoglycan), TLR4 (LPS or the EDA protein) or TLR9 (CpG) ligand. Seven days after the immunization, the mice were intravenously injected with a mixture of 5×10^6 splenocytes, half of which had been previously labeled with a dose of 0.25 μM C and the other half with 2.5 uM CFSE and the SIINFEKL peptide (10 μg/ml). On the following day, the mice were sacrificed and the splenocytes were analyzed by flow cytometry to quantify the number of cells with high CFSE labeling with respect to the cells with low CFSE labeling. Thus, the percentage of cell lysis of the cells incubated with the cytotoxic SIINFEKL peptide can be calculated in an experiment called in vivo killing.
For the analysis of IFNγ-producing cells specific for SIINFEKL and induced in vivo by the immunizations, ELISPOT experiments were carried out using a BD-pharmingen kit (San Diego, Calif.) and according to the instructions of the manufacturer. Briefly, the plates (Multiscreen HTS, Millipore, Bedford, Mass.) incubated overnight with the anti-IFNγ antibody were blocked for 2 hours with HL-1 medium (Biowhittaker, Verviers, Belgium) containing 10% horse serum. Thus, 5×10^5 splenocytes were incubated in triplicate in the absence or in the presence of the antigens at 37° C. and 5% CO2. On the following day, the plates were washed with PBS and incubated with biotinylated anti-IFNγ antibody (2 mg/ml). After two hours, the plates were washed and incubated with a 1/100 dilution of streptavidin-peroxidase. One hour later, the wells were washed and developed using the AEC substrate set (BD-Pharmingen). The colorimetric reaction was stopped with distilled water and the number of spots was quantified using an ELISPOT automatic reader (CTL, Aalen, Germany).
as §1

[10] = test system: splenocytes pulsed with the SIINFEKL peptide; assay: In vivo killing assay against SIINFEKL-pulsed splenocytes in TLR2 KO mice; settings: mice lacking TLR2, 5 nmoles peptide with 50 μg poly I:C, seven days; level similar to wild type
Protocol: C57BL6 wild type mice and knockout mice were immunized for TLR2 with the aim of studying the dependence on TLR2 in the immunostimulating capacity of modulin-derived peptides. Thus, different mice were injected with 5 nmoles of the indicated peptides or with PBS in combination with 50 μg of the TLR3 ligand poly I:C. Seven days after the immunization, the mice were intravenously injected with a mixture of 5×10^6 splenocytes, half of which had been previously labeled with a dose of 0.25 μM C and the other half with 2.5 μM CFSE and the SIINFEKL peptide (10 μg/ml). On the following day, the mice were sacrificed and the splenocytes were analyzed by flow cytometry to quantify the number of cells with high CFSE labeling with respect to the cells with low CFSE labeling in the same manner as in Example 3.

| Substance | specific cytotoxic activity against SIINFEKL (in vivo killing) [4] | effect of combination with TLR3 ligand on activation of the cytotoxic response (in vivo killing) [4] | effect of combination with TLR9 ligand on activation of the cytotoxic response (in vivo killing) [4] | cytotoxic T responses against SIINFEKL target cells (in vivo killing) [4] | proliferation of OT-1 T lymphocytes stimulated by peptide-incubated dendritic cells [5] | IFN-γ-producing cells specific for SIINFEKL (ELISPOT) [8] | IFNγ-producing cells in response to SIINFEKL (ELISPOT) [9] | IFN-γ-producing cells specific for SIINFEKL (ELISPOT) [9] | cytotoxic T responses against SIINFEKL target cells (in vivo killing) [10] | further results |
| --- | --- | --- | --- | --- | --- | --- | --- | --- | --- | --- |
| CFSE-MAADIISTIGDLVKWIIDTVNKFKKSIINFEKL [CFSE-γMod-SIINFEKL] |  |  |  |  |  |  |  |  |  | binding of CFSE labeled peptide to bone marrow derived dendritic cells [1]: able to stain bone marrow derived dendritic cells; binding of CFSE labeled peptide to the surface of TLR2 KO splenocytes [2]: still retained the capacity to bind; percentage of CD4+ cells stained with the CFSE peptide [3]: approximately 24.4%; percentage of CD8+ cells stained with the CFSE peptide [3]: ~17.8%; percentage of CD11c cells stained with the CFSE peptide [3]: ~62.1%; percentage of CD19 cells stained with the CFSE peptide [3]: ~52.8%; percentage of F418 cells stained with the CFSE peptide [3]: ~66.2%; percentage of GR1+ cells stained with the CFSE peptide [3]: ~27.3% |
| MAADIISTIGDLVKWIIDTVNKFKKSIINFEKL [γMod-SIINFEKL] | strong cytotoxic responses | synergistic effect | synergistic effect | capable of inducing cytotoxic T responses | significantly better than OVA (235-264) peptide | also observed | production of IFNγ | is induced | also observed | reduction of the bright fluorescence of CFSE γMod-SIINFEKL on splenocytes by unlabeled peptide (mouse splenocytes; 20 μM CFSE γMod-SIINFEKL): reduced the bright fluorescence; protection from tumor growth after EG7OVA challenge (EG7OVA tumor cells [6]; 7×10^5 EG7OVA cells s.c. seven days after immunization (FIG. 5B)): protected the mice from tumor growth; mice rejecting the established tumor (EG7OVA tumor cells [7]): about 38% |
| MADVIAKIVEIVKGLIDQFTQKSIINFEKL [αMod-SIINFEKL] | strong cytotoxic responses | synergistic effect | synergistic effect | capable of inducing cytotoxic T responses | significantly better than OVA (235-264) peptide | also observed | production of IFNγ | is induced | also observed | inhibition of the CFSE αMod-SIINFEKL signal on splenocytes by unlabeled peptide (mouse splenocytes; 20 μM CFSE αMod-SIINFEKL): significantly inhibited; protection from tumor growth after EG7OVA challenge (EG7OVA tumor cells [6]; 5×10^5 EG7OVA cells s.c. seven days after immunization (FIG. 5A)): protected the mice from tumor growth |
